The values that follow come from ChEMBL document CHEMBL1129158, “Marine sponge bis(indole) alkaloids that displace ligand binding to 1 adrenergic receptors” (Bioorg Med Chem Lett, 1996).

The target in experiment [1] is T1, Alpha-1A adrenergic receptor (Homo sapiens, UniProt P35348).
T1 sequence (P35348 whole entry): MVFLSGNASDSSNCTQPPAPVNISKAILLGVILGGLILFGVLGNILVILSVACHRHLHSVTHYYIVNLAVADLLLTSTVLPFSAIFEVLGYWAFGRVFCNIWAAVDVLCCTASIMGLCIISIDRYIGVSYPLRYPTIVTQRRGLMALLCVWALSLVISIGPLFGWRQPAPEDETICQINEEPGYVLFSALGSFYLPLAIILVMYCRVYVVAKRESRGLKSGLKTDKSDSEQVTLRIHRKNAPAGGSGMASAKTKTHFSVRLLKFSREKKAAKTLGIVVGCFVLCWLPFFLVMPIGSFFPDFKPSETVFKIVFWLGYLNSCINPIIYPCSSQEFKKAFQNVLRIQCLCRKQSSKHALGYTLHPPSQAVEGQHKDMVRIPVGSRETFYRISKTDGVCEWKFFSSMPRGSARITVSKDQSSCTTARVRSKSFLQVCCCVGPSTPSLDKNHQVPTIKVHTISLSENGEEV
As to the kind of experiment: Compound was tested for its binding affinity towards CHO cells expressing human Alpha-1a adrenergic receptor by displacing [125I]HEAT (2-beta-(4-hydroxyphenyl)-ethylaminomethyltetralone). The class given is cell-based.

Experiment [2] has as its target T2, Alpha-1A adrenergic receptor (Rattus norvegicus, UniProt P43140).
T2 sequence (P43140 whole entry): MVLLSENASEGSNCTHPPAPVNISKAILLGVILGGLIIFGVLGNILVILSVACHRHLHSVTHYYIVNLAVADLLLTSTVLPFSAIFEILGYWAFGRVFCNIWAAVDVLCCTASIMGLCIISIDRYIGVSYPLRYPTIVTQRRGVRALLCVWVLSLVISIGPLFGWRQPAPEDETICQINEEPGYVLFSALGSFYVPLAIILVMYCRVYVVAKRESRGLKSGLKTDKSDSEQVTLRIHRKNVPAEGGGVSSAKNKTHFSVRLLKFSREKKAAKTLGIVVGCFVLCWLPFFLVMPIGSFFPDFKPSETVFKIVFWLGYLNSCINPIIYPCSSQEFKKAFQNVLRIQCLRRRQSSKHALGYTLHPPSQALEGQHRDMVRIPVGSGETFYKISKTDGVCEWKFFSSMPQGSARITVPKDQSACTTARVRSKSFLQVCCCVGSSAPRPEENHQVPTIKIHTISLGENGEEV
As to the kind of experiment: Binding affinity was determined against Alpha-1a adrenergic receptor.

Experiment [3] addresses T3, Alpha-1B adrenergic receptor (Homo sapiens, UniProt P35368).
T3 sequence (P35368 whole entry): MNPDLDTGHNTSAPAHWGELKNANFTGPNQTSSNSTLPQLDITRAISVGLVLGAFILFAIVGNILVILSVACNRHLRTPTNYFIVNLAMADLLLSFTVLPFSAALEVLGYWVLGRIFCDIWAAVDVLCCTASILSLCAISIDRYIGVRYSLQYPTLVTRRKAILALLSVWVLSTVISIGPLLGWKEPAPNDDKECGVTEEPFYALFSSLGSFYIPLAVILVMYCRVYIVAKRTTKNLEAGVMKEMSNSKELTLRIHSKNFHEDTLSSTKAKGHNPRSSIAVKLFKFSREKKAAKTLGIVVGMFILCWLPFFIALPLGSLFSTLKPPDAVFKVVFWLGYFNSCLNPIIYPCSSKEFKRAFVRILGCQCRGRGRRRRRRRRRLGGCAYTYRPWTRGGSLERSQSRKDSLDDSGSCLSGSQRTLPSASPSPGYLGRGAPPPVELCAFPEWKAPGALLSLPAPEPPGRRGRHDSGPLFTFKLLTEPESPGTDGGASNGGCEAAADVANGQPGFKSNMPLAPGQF
Kind of experiment: Binding affinity against human Alpha-1b adrenergic receptor.

The target in experiment [4] is Adrenergic receptors; alpha-1 A & B (Homo sapiens) (UniProt P35348+P35368). As to the kind of experiment: Selectivity is determined from the ratio of binding affinities of alpha 1a adrenoceptor to alpha 1b adrenoceptor. Type of experiment: protein assay.
Experiment [5] has as its target Alpha-1B adrenergic receptor (Mesocricetus auratus, UniProt P18841). As to the kind of experiment: Compound was tested for its binding affinity towards Rat-1 cells stably expressing hamster alpha-1b adrenergic receptor by displacing [125I]HEAT (2-beta-(4-hydroxyphenyl)-ethylaminomethyltetralone). The class given is cell-based.

Molecules are shown by their SMILES.

Alpha-1B adrenergic receptor (Mesocricetus auratus, UniProt P18841), sequence (P18841 whole entry, looked up): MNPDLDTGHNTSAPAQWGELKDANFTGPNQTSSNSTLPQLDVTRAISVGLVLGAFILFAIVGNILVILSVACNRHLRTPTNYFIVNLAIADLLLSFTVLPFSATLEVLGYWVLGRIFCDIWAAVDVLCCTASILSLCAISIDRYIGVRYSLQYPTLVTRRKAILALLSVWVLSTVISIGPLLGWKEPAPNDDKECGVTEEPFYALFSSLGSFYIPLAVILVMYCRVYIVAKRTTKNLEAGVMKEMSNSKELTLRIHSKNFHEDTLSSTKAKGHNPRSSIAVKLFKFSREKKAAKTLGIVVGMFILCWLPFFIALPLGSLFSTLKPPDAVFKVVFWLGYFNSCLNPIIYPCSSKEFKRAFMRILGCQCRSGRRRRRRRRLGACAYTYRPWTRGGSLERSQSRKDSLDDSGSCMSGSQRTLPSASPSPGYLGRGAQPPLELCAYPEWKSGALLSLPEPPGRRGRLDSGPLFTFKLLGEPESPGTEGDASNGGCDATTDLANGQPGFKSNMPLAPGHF

`CN1C[C@H](c2c[nH]c3c(Br)c(Br)cc(O)c23)NC[C@H]1c1c[nH]c2cc(Br)ccc12`: the Ki in experiment [1] is 140 nM; in experiment [2], 138 nM; in experiment [3], 78 nM. In addition, the Selectivity in experiment [4] was 1.8.

`O=C(c1nc(-c2c[nH]c3cc(Br)ccc23)c[nH]1)c1c[nH]c2cc(O)ccc12` [BROMOTOPSENTIN] gave a Ki in experiment [1] of 12600 nM. In addition, in experiment [4], the Selectivity was 17.

In the case of `Brc1ccc2c(-c3c[nH]c(-c4c[nH]c5cc(Br)ccc45)n3)c[nH]c2c1` [NORTOPSENTIN A], in experiment [1], the inhibition constant (Ki) worked out at 2140 nM. For the same molecule, in experiment [4], the Selectivity came out at 4.1.

Turning to `Brc1ccc2c(-c3nc(-c4c[nH]c5ccccc45)c[nH]3)c[nH]c2c1` [NORTOPSENTIN B], in experiment [1], the Ki was found to be 770 nM. The Selectivity in experiment [4] worked out at 5.9.

In experiment [1], `Brc1ccc2c(-c3c[nH]c(-c4c[nH]c5ccccc45)n3)c[nH]c2c1` [NORTOPSENTIN C] showed a Ki of 550 nM. The Selectivity in experiment [4] was determined as 3.2.

For the molecule `O=C(c1nc(-c2c[nH]c3ccccc23)c[nH]1)c1c[nH]c2cc(O)ccc12` [TOPSENTIN], the Ki in experiment [5] is 4740 nM. In addition, the Selectivity in experiment [4] worked out at 4.1.
